Data reported in patent publication US20080269267A1, “KINASE INHIBITORS USEFUL FOR THE TREATMENT OF MYLEOPROLIFIC DISEASES AND OTHER PROLIFERATIVE DISEASES” (Deciphera Pharmaceuticals, LLC, priority 2007, published 2008).
Residue numbers refer to the chain shown, from its start. Counter-ions that a name gives are not always drawn.

Key:
Abl kinase (SEQ ID NO:1) = molecular target: T1, Abl kinase (SEQ ID NO:1) (Homo sapiens, UniProt P00519); assay: Abl kinase assay (pyruvate kinase/lactate dehydrogenase coupled, ADP production); settings: 2 h preincubation at 30° C., ATP 500 μM; read-out: Abl Enzyme Assay, biochemical IC50
T1 construct: purchased deCode Genetics
T1 sequence (P00519 with tags, fused parts or gaps): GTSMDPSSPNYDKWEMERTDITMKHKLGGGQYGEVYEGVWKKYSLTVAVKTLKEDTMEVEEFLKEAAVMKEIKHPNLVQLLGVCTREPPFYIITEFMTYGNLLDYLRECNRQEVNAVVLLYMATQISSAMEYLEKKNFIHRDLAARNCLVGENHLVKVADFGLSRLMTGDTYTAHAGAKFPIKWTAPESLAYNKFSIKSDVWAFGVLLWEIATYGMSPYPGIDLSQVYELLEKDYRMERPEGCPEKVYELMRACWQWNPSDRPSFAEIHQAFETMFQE
Experimental: Abl Kinase (SEQ ID NO:1) Assay
Activity of Abl kinase (SEQ ID NO:1) was determined by following the production of ADP from the kinase reaction through coupling with the pyruvate kinase/lactate dehydrogenase system (e.g., Schindler, et al. Science (2000) 289, 1938-1942). In this assay, the oxidation of NADH (thus the decrease at A340nm) was continuously monitored spectrophometrically. The reaction mixture (100 μl) contained Abl kinase (1 nM. Abl from deCode Genetics), peptide substrate (EAIYAAPFAKKK. 0.2 mM), MgCl2 (10 mM), pyruvate kinase (4 units), lactate dehydrogenase (0.7 units), phosphoenol pyruvate (1 mM), and NADH (0.28 mM) in 90 mM Tris buffer containing 0.2% octyl-glucoside and 3.5% DMSO, pH 7.5. Test compounds were incubated with Abl (SEQ ID NO:1) and other reaction reagents at 30° C. for 2 h before ATP (500 μM) was added to start the reaction. The absorption at 340 nm was monitored continuously for 2 hours at 30° C. on Polarstar Optima plate reader (BMG). The reaction rate was calculated using the 1.0 to 2.0 h time frame. Percent inhibition was obtained by comparison of reaction rate with that of a control (i.e. with no test compound). IC50 values were calculated from a series of percent inhibition values determined at a range of inhibitor concentrations using software routines as implemented in the GraphPad Prism software package.

[1] = molecular target: T2, T315I Abl kinase (SEQ ID NO:2) (Homo sapiens, UniProt P00519, T315I); assay: T315I Abl kinase assay (pyruvate kinase/lactate dehydrogenase coupled); settings: 1 h preincubation at 30° C., ATP 500 μM; read-out: Abl T315l Enzyme Assay, biochemical IC50
T2 construct: purchased deCode Genetics
T2 sequence (P00519 with tags, fused parts or gaps T315I): T1 sequence (P00519 with tags, fused parts or gaps) with T94I
Experimental: Abl Kinase (SEQ ID NO:2) Assay
Activity of T315I Abl kinase (SEQ ID NO:2) was determined by following the production of ADP from the kinase reaction through coupling with the pyruvate kinase/lactate dehydrogenase system (e.g., Schindler, et al. Science (2000) 289, 1938-1942). In this assay, the oxidation of NADH (thus the decrease at A340nm) was continuously monitored spectrophometrically. The reaction mixture (100 μl) contained Abl kinase (4.4 nM. […] Abl from deCode Genetics), peptide substrate (EAIYAAPFAKKK, 0.2 mM), MgCl2 (10 mM), pyruvate kinase (4 units), lactate dehydrogenase (0.7 units), phosphoenol pyruvate (1 mM), and NADH (0.28 mM) in 90 mM Tris buffer containing 0.2% octyl-glucoside and 1% DMSO, pH 7.5. Test compounds were incubated with T315I Abl (SEQ ID NO:2) and other reaction reagents at 30° C. for 1 h before ATP (500 μM) was added to start the reaction. The absorption at 340 nm was monitored continuously for 2 hours at 30° C. on Polarstar Optima plate reader (BMG). The reaction rate was calculated using the 1.0 to 2.0 h time frame. Percent inhibition was obtained by comparison of reaction rate with that of a control (i.e. with no test compound). IC50 values were calculated from a series of percent inhibition values determined at a range of inhibitor concentrations using software routines as implemented in the GraphPad Prism software package.

[2] = molecular target: T3, C-Met kinase (SEQ ID NO:10) (Homo sapiens, UniProt P08581); assay: C-Met kinase assay (pyruvate kinase/lactate dehydrogenase coupled); settings: 0.5 h preincubation at 22° C., ATP 100 μM; read-out: c-Met Enzyme Assay, biochemical IC50
T3 construct: purchased Invitrogen PV3143
T3 sequence (P08581 with tags, fused parts or gaps): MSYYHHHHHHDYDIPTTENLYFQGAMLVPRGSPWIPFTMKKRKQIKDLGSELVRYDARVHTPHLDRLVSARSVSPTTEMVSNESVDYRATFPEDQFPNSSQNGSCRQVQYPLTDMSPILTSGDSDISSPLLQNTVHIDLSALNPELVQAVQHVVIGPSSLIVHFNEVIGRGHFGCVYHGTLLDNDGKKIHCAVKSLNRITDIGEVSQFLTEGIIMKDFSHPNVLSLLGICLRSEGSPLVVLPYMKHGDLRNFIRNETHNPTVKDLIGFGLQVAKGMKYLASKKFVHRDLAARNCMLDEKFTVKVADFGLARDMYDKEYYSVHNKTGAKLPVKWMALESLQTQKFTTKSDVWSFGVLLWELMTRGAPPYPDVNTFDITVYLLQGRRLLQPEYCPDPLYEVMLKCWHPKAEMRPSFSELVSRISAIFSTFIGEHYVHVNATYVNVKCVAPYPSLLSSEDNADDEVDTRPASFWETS
Experimental: C-Met Kinase (SEQ ID NO:10) Assay
Activity of C-Met kinase (SEQ ID NO:10) was determined by following the production of ADP from the kinase reaction through coupling with the pyruvate kinase/lactate dehydrogenase system (e.g., Schindler, et al. Science (2000) 289, 1938-1942). In this assay, the oxidation of NADH (thus the decrease at A340 nm) was continuously monitored spectrophometrically. The reaction mixture (100 μl) contained C-Met (c-Met residues; 956-1390, from Invitrogen, catalogue #PV3143, 6 nM), polyE4Y (1 mg/ml), MgCl2 (10 mM), pyruvate kinase (4 units), lactate dehydrogenase (0.7 units), phosphoenol pyruvate (1 mM), and NADH (0.28 mM) in 90 mM Tris buffer containing 0.25 mM DTT, 0.2% octyl-glucoside and 1% DMSO, pH 7.5. Test compounds were incubated with C-Met (SEQ ID NO:10) and other reaction reagents at 22° C. for 0.5 h before ATP (100 μM) was added to start the reaction. The absorption at 340 n=was monitored continuously for 2 hours at 30° C. on Polarstar Optima plate reader (BMG). The reaction rate was calculated using the 1.0 to 2.0 h time frame. Percent inhibition was obtained by comparison of reaction rate with that of a control (i.e. with no test compound). IC50 values were calculated from a series of percent inhibition values determined at a range of inhibitor concentrations using software routines as implemented in the GraphPad Prism software package.

| Molecule | IC50 (Abl kinase (SEQ ID NO:1)) [nM] | IC50 [1] [nM] | IC50 [2] [nM] |
| --- | --- | --- | --- |
| Cn1cc(-c2cc(Oc3ccc(NC(=O)Nc4cc(C(C)(C)C)nn4-c4ccc(C#N)cc4)c(F)c3)ccn2)cn1 [Example 6, 1-(3-tert-butyl-1-(4-cyanophenyl)-1H-pyrazol-5-yl)-3-(2-fluoro-4-(2-(1-methyl-1H-pyrazol-4-yl)pyridin-4-yloxy)phenyl)urea] | < 100 | < 100 | < 100 |
| Cn1cc(-c2cc(Oc3ccc(NC(=O)Nc4cc(C(C)(C)C)nn4-c4cccc(C#N)c4)c(F)c3)ccn2)cn1 [Example 4, 1-(3-tert-butyl-1-(3-cyanophenyl)-1H-pyrazol-5-yl)-3-(2-fluoro-4-(2-(1-methyl-1H-pyrazol-4-yl)pyridin-4-yloxy)phenyl)urea hydrochloride] | < 100 | < 100 | < 100 |
| CC(C)c1cc(NC(=O)Nc2ccc(Oc3ccnc(-c4cnn(C)c4)c3)cc2F)n(-c2cccc(F)c2)n1 [Example 24, 1-(2-fluoro-4-(2-(1-methyl-1H-pyrazol-4-yl)pyridin-4-yloxy)phenyl)-3-(1-(3-fluorophenyl)-3-isopropyl-1H-pyrazol-5-yl)urea] | < 100 | < 100 | < 100 |
| CC(C)c1cc(NC(=O)Nc2ccc(Oc3ccnc(-c4cnn(C)c4)c3)cc2F)n(-c2cccc(C#N)c2)n1 [Example 2, 1-(1-(3-cyanophenyl)-3-isopropyl-1H-pyrazol-5-yl)-3-(2-fluoro-4-(2-(1-methyl-1H-pyrazol-4-yl)pyridin-4-yloxy)phenyl)urea] | < 100 | < 100 | < 100 |
| Cc1ccc(-n2nc(C(C)C)cc2NC(=O)Nc2ccc(Oc3ccnc(-c4cnn(C)c4)c3)cc2F)cc1C#N [Example 11, 1-(1-(3-cyano-4-methylphenyl)-3-isopropyl-1H-pyrazol-5-yl)-3-(2-fluoro-4-(2-(1-methyl-1H-pyrazol-4-yl)pyridin-4-yloxy)phenyl)urea] | < 100 | < 100 | < 100 |
| CC(C)c1cc(NC(=O)Nc2ccc(Oc3ccnc(-c4cnn(C)c4)c3)c(F)c2)n(-c2cccc(C#N)c2)n1 [Example 16, 1-(1-(3-cyanophenyl)-3-isopropyl-1H-pyrazol-5-yl)-3-(3-fluoro-4-(2-(1-methyl-1H-pyrazol-4-yl)pyridin-4-yloxy)phenyl)urea] | < 100 | < 100 | < 100 |
| CC(C)c1cc(NC(=O)Nc2ccc(Oc3ccnc(-c4cnn(C)c4)c3)cc2F)n(-c2ccc(F)c(C#N)c2)n1 [Example 5, 1-(1-(3-cyano-4-fluorophenyl)-3-isopropyl-1H-pyrazol-5-yl)-3-(2-fluoro-4-(2-(1-methyl-1H-pyrazol-4-yl)pyridin-4-yloxy)phenyl)urea] | < 100 | < 100 | < 1000 |
| CCc1cc(NC(=O)Nc2ccc(Oc3ccnc(-c4cnn(C)c4)c3)cc2F)n(-c2ccc(CO)cc2)n1 [Example 19, 1-(3-ethyl-1-(4-(hydroxymethyl)phenyl)-1H-pyrazol-5-yl)-3-(2-fluoro-4-(2-(1-methyl-1H-pyrazol-4-yl)pyridin-4-yloxy)phenyl)urea] | < 100 | < 100 | < 1000 |
| CC(C)(C)c1cc(NC(=O)Nc2ccc(Oc3ccnc(-c4cn[nH]c4)c3)cc2F)n(-c2cccc(C#N)c2)n1 [Example 3, 1-(4-(2-(1H-pyrazol-4-yl)pyridin-4-yloxy)-2-fluorophenyl)-3-(3-tert-butyl-1-(3-cyanophenyl-1H-pyrazol-5-yl)urea hydrochloride] | < 100 | < 100 | < 100 |
| CC(C)n1cc(NC(=O)Nc2ccc(Oc3ccnc(-c4cnn(C)c4)c3)cc2F)c(-c2ccccc2)n1 [Example 21, 1-(2-fluoro-4-(2-(1-methyl-1H-pyrazol-4-yl)pyridin-4-yloxy)phenyl)-3-(1-isopropyl-3-phenyl-1H-pyrazol-4-yl)urea] | < 100 | < 100 | < 1000 |
| 1-(2-tert-butyl-4-(pyridin-3-yl)pyrimidin-5-yl)-3-(2-fluoro-5-(8-methyl-2-(methylamino)-7-oxo-7,8-dihydropyrido[2,3-d]pyrimidin-6-yl)phenyl)urea [Example 10] | < 100 | < 100000 | < 10000 |
| Cn1cc(-c2cc(Oc3ccc(NC(=O)Nc4cc(-c5ccccc5F)nn4C)c(F)c3F)ccn2)cn1 [Example 25, 1-(2,3-difluoro-4-(2-(1-methyl-1H-pyrazol-4-yl)pyridin-4-yloxy)phenyl)-3-(3-(2-fluorophenyl)-1-methyl-1H-pyrazol-5-yl)urea] | < 100 | < 100 | < 1000 |
| Cc1ncc(NC(=O)Nc2ccc(Oc3ccnc(-c4cnn(C)c4)c3)cc2F)c(-c2ccccc2)n1 [Example 14, 1-(2-fluoro-4-(2-(1-methyl-1H-pyrazol-4-yl)pyridin-4-yloxy)phenyl)-3-(2-methyl-4-phenylpyrimidin-5-yl)urea] | < 100 | < 100000 | < 10000 |
| Cc1c(Oc2ccnc(-c3cnn(C)c3)c2)ccc(NC(=O)Nc2cc(C(C)C)nn2-c2cccc(C#N)c2)c1F [Example 12, 1-(1-(3-cyanophenyl)-3-isopropyl-1H-pyrazol-5-yl)-3-(2-fluoro-3-methyl-4-(2-(1-methyl-1H-pyrazol-4-yl)pyridin-4-yloxy)phenyl)urea] | < 100 | < 100 | < 100 |
| CCc1cc(NC(=O)Nc2ccc(Oc3ccnc(-c4cnn(C)c4)c3)cc2F)n(-c2cccc(C#N)c2)n1 [Example 9, 1-(1-(3-cyanophenyl)-3-ethyl-1H-pyrazol-5-yl)-3-(2-fluoro-4-(2-(1-methyl-1H-pyrazol-4-yl)pyridin-4-yloxy)phenyl)urea] | < 100 | < 100 | < 1000 |
